Laboratory results from the supplement of paper PMC10307832.

Assays:
Assay in all cases: relative viability (nuclei count vs DMSO), 5 days (fraction); higher = more cells survive
[1] = system: BEN
How it was run: (§1)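 Medians of duplicate plates are given as relative viability. That measure is the nuclei count in treated wells divided by the count in vehicle wells. Counts were taken on 4× images of lung cancer cell lines in 1536-well plates, 5 days after pin-tool dosing the day after seeding with one drug alone or a fixed anchor-drug dose plus five library-drug doses (not always all listed) in √10 steps.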

[2] = system: ChaGo-K-1
How it was run: as §1

[3] = system: EKVX
How it was run: as §1

[4] = system: HCC-827
How it was run: as §1

[5] = system: HOP-62
How it was run: as §1

[6] = system: LCLC-103H
How it was run: as §1

[7] = system: LK-2
How it was run: as §1

[8] = system: LOU-NH91
How it was run: as §1

[9] = system: LXF-289
How it was run: as §1

[10] = system: NCI-H1355
How it was run: as §1

[11] = system: NCI-H1437
How it was run: as §1

[12] = system: NCI-H1666
How it was run: as §1

[13] = system: NCI-H1944
How it was run: as §1

[14] = system: NCI-H1993
How it was run: as §1

[15] = system: NCI-H2126
How it was run: as §1

[16] = system: NCI-H2170
How it was run: as §1

[17] = system: NCI-H441
How it was run: as §1

[18] = system: NCI-H647
How it was run: as §1

[19] = system: NCI-H661
How it was run: as §1

[20] = system: NCI-H727
How it was run: as §1

[21] = system: PC-14
How it was run: as §1

[22] = system: RERF-LC-KJ
How it was run: as §1

[23] = system: SK-MES-1
How it was run: as §1

With `Cc1csc(=NC2CCCCC2)n1/N=C/c1ccc(O)c(O)c1O` [MIM1] + O=C(c1cc(Cc2n[nH]c(=O)c3ccccc23)ccc1F)N1CCN(C(=O)C2CC2)CC1 [Olaparib] (partner 8 µM) the relative viability ([1]; first compound 0.2 µM) was 1.07, the relative viability ([1]; first compound 0.6325 µM) was 1.18 and the relative viability ([1]; first compound 2 µM) was 1.09. It also gave a relative viability ([1]; first compound 6.325 µM) of 1.01, a relative viability ([1]; first compound 20 µM) of 0.239 and a relative viability ([2]; first compound 0.2 µM) of 0.399. It also gave a relative viability ([2]; first compound 0.6325 µM) of 0.346, a relative viability ([2]; first compound 2 µM) of 0.385 and a relative viability ([2]; first compound 6.325 µM) of 0.214. It also gave a relative viability ([2]; first compound 20 µM) of 0.127, a relative viability ([3]; first compound 0.2 µM) of 0.776 and a relative viability ([3]; first compound 0.6325 µM) of 0.785. The relative viability ([3]; first compound 2 µM) was 0.59, the relative viability ([3]; first compound 6.325 µM) was 0.51 and the relative viability ([3]; first compound 20 µM) was 0.412. The relative viability ([4]; first compound 0.2 µM) was 0.653, the relative viability ([4]; first compound 0.6325 µM) was 0.626 and the relative viability ([4]; first compound 2 µM) was 0.639. The relative viability ([4]; first compound 6.325 µM) was 0.37, the relative viability ([4]; first compound 20 µM) was 0.241 and the relative viability ([5]; first compound 0.2 µM) was 0.424. It also gave a relative viability ([5]; first compound 0.6325 µM) of 0.529, a relative viability ([5]; first compound 2 µM) of 0.169 and a relative viability ([5]; first compound 6.325 µM) of 0.293. The relative viability ([5]; first compound 20 µM) was 0.115, the relative viability ([6]; first compound 0.2 µM) was 0.814 and the relative viability ([6]; first compound 0.6325 µM) was 0.771. It also gave a relative viability ([6]; first compound 2 µM) of 0.782, a relative viability ([6]; first compound 6.325 µM) of 0.532 and a relative viability ([6]; first compound 20 µM) of 0.336. For the same molecule, the relative viability ([7]; first compound 0.2 µM) was 0.934, the relative viability ([7]; first compound 0.6325 µM) was 0.75 and the relative viability ([7]; first compound 2 µM) was 0.472. It also gave a relative viability ([7]; first compound 6.325 µM) of 0.685, a relative viability ([7]; first compound 20 µM) of 0.148 and a relative viability ([8]; first compound 0.2 µM) of 0.92. The relative viability ([8]; first compound 0.6325 µM) was 0.922, the relative viability ([8]; first compound 2 µM) was 0.596 and the relative viability ([8]; first compound 6.325 µM) was 0.589. For the same molecule, the relative viability ([8]; first compound 20 µM) was 0.369, the relative viability ([9]; first compound 0.2 µM) was 1.04 and the relative viability ([9]; first compound 0.6325 µM) was 0.844. It also gave a relative viability ([9]; first compound 2 µM) of 1.13, a relative viability ([9]; first compound 6.325 µM) of 0.915 and a relative viability ([9]; first compound 20 µM) of 0.179. For the same molecule, the relative viability ([10]; first compound 0.2 µM) was 0.731, the relative viability ([10]; first compound 0.6325 µM) was 0.664 and the relative viability ([10]; first compound 2 µM) was 0.803. For the same molecule, the relative viability ([10]; first compound 6.325 µM) was 0.603, the relative viability ([10]; first compound 20 µM) was 0.297 and the relative viability ([11]; first compound 0.2 µM) was 0.615. It also gave a relative viability ([11]; first compound 0.6325 µM) of 0.644, a relative viability ([11]; first compound 2 µM) of 0.58 and a relative viability ([11]; first compound 6.325 µM) of 0.192. For the same molecule, the relative viability ([11]; first compound 20 µM) was 0.206, the relative viability ([12]; first compound 0.2 µM) was 0.71 and the relative viability ([12]; first compound 0.6325 µM) was 0.739. The relative viability ([12]; first compound 2 µM) was 0.665, the relative viability ([12]; first compound 6.325 µM) was 0.72 and the relative viability ([12]; first compound 20 µM) was 0.707. The relative viability ([13]; first compound 0.2 µM) was 0.405, the relative viability ([13]; first compound 0.6325 µM) was 0.422 and the relative viability ([13]; first compound 2 µM) was 0.352. The relative viability ([13]; first compound 6.325 µM) was 0.32, the relative viability ([13]; first compound 20 µM) was 0.131 and the relative viability ([14]; first compound 0.2 µM) was 1. For the same molecule, the relative viability ([14]; first compound 0.6325 µM) was 0.819, the relative viability ([14]; first compound 2 µM) was 0.949 and the relative viability ([14]; first compound 6.325 µM) was 0.873. The relative viability ([14]; first compound 20 µM) was 0.432, the relative viability ([15]; first compound 0.2 µM) was 0.936 and the relative viability ([15]; first compound 0.6325 µM) was 0.879. The relative viability ([15]; first compound 2 µM) was 0.916, the relative viability ([15]; first compound 6.325 µM) was 0.849 and the relative viability ([15]; first compound 20 µM) was 0.401. The relative viability ([16]; first compound 0.2 µM) was 0.539, the relative viability ([16]; first compound 0.6325 µM) was 0.533 and the relative viability ([16]; first compound 2 µM) was 0.528. It also gave a relative viability ([16]; first compound 6.325 µM) of 0.269, a relative viability ([16]; first compound 20 µM) of 0.141 and a relative viability ([17]; first compound 0.2 µM) of 0.485. For the same molecule, the relative viability ([17]; first compound 0.6325 µM) was 0.66, the relative viability ([17]; first compound 2 µM) was 0.581 and the relative viability ([17]; first compound 6.325 µM) was 0.254. For the same molecule, the relative viability ([17]; first compound 20 µM) was 0.144, the relative viability ([18]; first compound 0.2 µM) was 0.611 and the relative viability ([18]; first compound 0.6325 µM) was 0.53. The relative viability ([18]; first compound 2 µM) was 0.697, the relative viability ([18]; first compound 6.325 µM) was 0.369 and the relative viability ([18]; first compound 20 µM) was 0.0666. For the same molecule, the relative viability ([19]; first compound 0.2 µM) was 0.696, the relative viability ([19]; first compound 0.6325 µM) was 0.715 and the relative viability ([19]; first compound 2 µM) was 0.778. It also gave a relative viability ([19]; first compound 6.325 µM) of 0.499, a relative viability ([19]; first compound 20 µM) of 0.316 and a relative viability ([20]; first compound 0.2 µM) of 0.7. For the same molecule, the relative viability ([20]; first compound 0.6325 µM) was 0.721, the relative viability ([20]; first compound 2 µM) was 0.526 and the relative viability ([20]; first compound 6.325 µM) was 0.748. For the same molecule, the relative viability ([20]; first compound 20 µM) was 0.523, the relative viability ([21]; first compound 0.2 µM) was 0.276 and the relative viability ([21]; first compound 0.6325 µM) was 0.283. It also gave a relative viability ([21]; first compound 2 µM) of 0.228, a relative viability ([21]; first compound 6.325 µM) of 0.232 and a relative viability ([21]; first compound 20 µM) of 0.0784. The relative viability ([22]; first compound 0.2 µM) was 0.662, the relative viability ([22]; first compound 0.6325 µM) was 0.557 and the relative viability ([22]; first compound 2 µM) was 0.197. For the same molecule, the relative viability ([22]; first compound 6.325 µM) was 0.221, the relative viability ([22]; first compound 20 µM) was 0.215 and the relative viability ([23]; first compound 0.2 µM) was 0.743. The relative viability ([23]; first compound 0.6325 µM) was 0.657, the relative viability ([23]; first compound 2 µM) was 0.548 and the relative viability ([23]; first compound 6.325 µM) was 0.259. For the same molecule, the relative viability ([23]; first compound 20 µM) was 0.108.
